Experiments:
[1] = test system: resveratrol prenyltransferase AhR4DT; assay: Prenyltransferase assay with microsomal fraction of elicited peanut hairy roots; type: biochemical, Arachis hypogaea; details: for resveratrol prenyltransferase activity relative to Mg^2+: 10 mM divalent cation; for prenylation as prenyl acceptor: 100 μM acceptor, 300 μM DMAPP
AhR4DT-1 = AhR4DT-1 (Arachis hypogaea, UniProt A0A2H4GDC8); assay: AhR4DT-1 activity in microsomal fraction of N. benthamiana leaves; details: for AhR4DT-1 activity relative to Mg^2+: 10 mM divalent cation or EDTA; for activity as prenyl donor: 300 μM donor, 100 μM resveratrol as prenyl acceptor; for prenylation as prenyl acceptor: DMAPP as prenyl donor
AhR3′DT-1 = AhR3′DT-1 (Arachis hypogaea, UniProt A0A2H4GDD0); assay: AhR3′DT-1 activity in microsomal fraction of N. benthamiana leaves; details: for AhR3′DT-1 activity relative to Mg^2+: 10 mM divalent cation or EDTA; for activity as prenyl donor: 300 μM donor, 100 μM resveratrol as prenyl acceptor; for prenylation as prenyl acceptor: DMAPP as prenyl donor
[2] = test system: peanut hairy root cultures; assay: Inhibitor feeding experiment in elicited peanut hairy root cultures; type: cell-based, Arachis hypogaea
resveratrol prenylation = assay: Screening for stilbenoid prenylation activity, crude extract of infiltrated N. benthamiana leaves; type: biochemical, Arachis hypogaea; details: resveratrol and DMAPP as substrates
Protocol: The engineered A. tumefaciens was grown in 5 mL of YEP medium, containing 50 mg/L of kanamycin (Sigma-Aldrich) and 30 mg/L of streptomycin (Sigma-Aldrich) for antibiotic selection, at 28° C. on an orbital shaker at 200 rpm. After cultivation for 2 days, 5 mL of bacterial suspension was inoculated into 50 mL of fresh YEP medium containing the antibiotics and allowed to grow for one additional day under the same conditions. Bacteria were pelleted by centrifugation, resuspended in 500 mL of induction medium containing 10 mM MgCl2 with 1 mM acetosyringone and incubated for 4 h at 28° C. under 200 rpm orbital shaking until their OD600 reached to a range from 0.5 to 0.6. Before the infiltration, 0.005% of Tween-20, 0.005% of Triton 100 and 0.005% of Silwet L-77 were added to bacterial cultures to enhance the efficiency of transformation in N. benthamiana leaves. Agrobacterium-mediated vacuum infiltration was performed on 4-week-old N. benthamiana following the methodology described previously (Medrano et al., 2009).
After 48 hours of post-infiltration, the “middle tier” of N. benthamiana leaves were harvested for prenylation activity screening. Five grams of leaf tissue (fresh weight) were grounded and homogenized using a mortar with pestle in 10 mL of extraction buffer containing 100 mM Tris-HCl (pH 7.6) and 10 mM dithiothreitol (DTT). […] The total protein concentration was determined by coomassie protein assay (Thermo Scientific) using bovine serum albumin as standard.
The reaction of crude cell-free extract of N. benthamiana leaves infiltrated with A. tumefaciens harboring the empty pBIB-Kan vector was used as control.

[3] = 100 clomazone with elicitors, 72 h
[4] = 10 μM mevastatin, 72-h treatment

AhR3′DT-1, sequence (A0A2H4GDD0 entry or part of it): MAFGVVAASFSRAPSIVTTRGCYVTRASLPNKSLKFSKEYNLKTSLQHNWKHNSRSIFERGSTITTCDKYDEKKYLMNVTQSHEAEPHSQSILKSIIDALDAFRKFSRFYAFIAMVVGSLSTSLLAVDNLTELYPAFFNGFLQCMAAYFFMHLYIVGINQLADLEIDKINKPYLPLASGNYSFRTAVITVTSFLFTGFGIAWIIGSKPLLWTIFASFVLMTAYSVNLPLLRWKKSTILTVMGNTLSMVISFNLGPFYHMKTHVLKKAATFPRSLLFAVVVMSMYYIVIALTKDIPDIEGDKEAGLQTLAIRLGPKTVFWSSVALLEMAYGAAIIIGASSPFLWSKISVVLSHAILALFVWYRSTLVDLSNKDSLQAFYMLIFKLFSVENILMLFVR
AhR4DT-1, sequence (A0A2H4GDC8 entry or part of it): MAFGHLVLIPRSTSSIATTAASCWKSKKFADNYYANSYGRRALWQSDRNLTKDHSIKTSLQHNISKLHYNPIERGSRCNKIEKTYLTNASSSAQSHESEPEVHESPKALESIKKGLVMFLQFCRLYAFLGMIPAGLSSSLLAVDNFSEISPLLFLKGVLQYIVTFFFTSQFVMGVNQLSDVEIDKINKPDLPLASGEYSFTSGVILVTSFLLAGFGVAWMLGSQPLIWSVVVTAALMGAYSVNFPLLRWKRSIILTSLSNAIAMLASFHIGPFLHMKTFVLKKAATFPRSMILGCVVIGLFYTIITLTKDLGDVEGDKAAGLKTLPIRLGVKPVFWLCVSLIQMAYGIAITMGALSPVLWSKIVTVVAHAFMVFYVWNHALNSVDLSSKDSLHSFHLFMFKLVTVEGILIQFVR

[Ca+2] [Ca^2+]
resveratrol prenyltransferase activity relative to Mg^2+ [1]: 0.9%

CC(C)=CCOP(=O)(O)OP(=O)(O)O [DMAPP, dimethylallyl pyrophosphate]
Km ([1]; microsomal fraction of peanut hairy roots, 28° C., 60 min, read-out: apparent km): 91.9 ± 7.03 µM
Vmax for AhR4DT-1 relative to AhR3′DT-1 (AhR4DT-1): 5.8 fold

O=C(O)CN(CCN(CC(=O)O)CC(=O)O)CC(=O)O [EDTA]
AhR4DT-1 activity relative to Mg^2+ (AhR4DT-1): no activity was detected
AhR3′DT-1 activity relative to Mg^2+ (AhR3′DT-1): no activity was detected

CC(C)=CCC/C(C)=C/CC/C(C)=C/COP(=O)(O)OP(=O)(O)O [FPP, farnesyl pyrophosphate]
activity as prenyl donor (AhR4DT-1): Neither AhR4DT-1 nor AhR3′DT-1 showed any detectable activity
activity as prenyl donor (AhR3′DT-1): Neither AhR4DT-1 nor AhR3′DT-1 showed any detectable activity

[Fe+2] [Fe^2+]
resveratrol prenyltransferase activity relative to Mg^2+ [1]: 14.6%
AhR4DT-1 activity relative to Mg^2+ (AhR4DT-1): 6.4%
AhR3′DT-1 activity relative to Mg^2+ (AhR3′DT-1): 34.8%

CC(C)=CCC/C(C)=C/CC/C(C)=C/CC/C(C)=C/COP(=O)(O)OP(=O)(O)O [GGPP, geranylgeranyl pyrophosphate]
activity as prenyl donor (AhR4DT-1): Neither AhR4DT-1 nor AhR3′DT-1 showed any detectable activity
activity as prenyl donor (AhR3′DT-1): Neither AhR4DT-1 nor AhR3′DT-1 showed any detectable activity

CC(C)=CCC/C(C)=C/COP(=O)(O)OP(=O)(O)O [GPP, geranyl pyrophosphate]
activity as prenyl donor (AhR4DT-1): Neither AhR4DT-1 nor AhR3′DT-1 showed any detectable activity
activity as prenyl donor (AhR3′DT-1): Neither AhR4DT-1 nor AhR3′DT-1 showed any detectable activity

[Mg+2] [Mg^2+]
resveratrol prenyltransferase activity relative to Mg^2+ [1]: 100%
AhR4DT-1 activity relative to Mg^2+ (AhR4DT-1): 100%
AhR3′DT-1 activity relative to Mg^2+ (AhR3′DT-1): 100%

[Mn+2] [Mn^2+]
resveratrol prenyltransferase activity relative to Mg^2+ [1]: 71.8%
AhR4DT-1 activity relative to Mg^2+ (AhR4DT-1): 83.9%
efficiency relative to Mg^2+ (AhR3′DT-1): 2.1 fold
AhR3′DT-1 activity relative to Mg^2+ (AhR3′DT-1): 210.3%

O=c1cc(-c2ccc(O)cc2)oc2cc(O)cc(O)c12 [apigenin]
prenylation as prenyl acceptor (AhR4DT-1): neither prenylated flavanone, prenylated flavone, nor prenylated isoflavone was detected
prenylation as prenyl acceptor (AhR3′DT-1): neither prenylated flavanone, prenylated flavone, nor prenylated isoflavone was detected

CC1(C)CON(Cc2ccccc2Cl)C1=O [clomazone]
yields of prenylated stilbenoids compared to non-inhibitor group ([2]; 10 μM and 100 μM clomazone): significantly lower yields of prenylated stilbenoids
yields of resveratrol compared to non-inhibitor group ([2]; 10 μM and 100 μM clomazone): significantly higher yields of resveratrol
piceatannol produced ([2]; 100 μM clomazone): 9.02 µM
resveratrol produced ([2]; 100 μM clomazone): 845.7 µM
accumulation of arachidin-5 and arachidin-1 ([2]; 100 μM clomazone, 48-hour): almost completely inhibited
piceatannol concentration ([2]; 100 μM clomazone, 72 h): increased only slightly
yield of resveratrol [2, 3]: 830.73 ± 25.83 µM
yield of resveratrol relative to non-inhibitor group [2, 3]: 6.3 fold
effects on accumulation of resveratrol and inhibition of prenylated stilbenoids accumulation ([2]; clomazone 1 μM to 100 μM with elicitors): increased with the concentration of clomazone
micromolar increase of resveratrol relative to overall decrease of arachidin-5, -1, -2 and -3 ([2]; clomazone with elicitors): about 1.54 fold
levels of all prenylated stilbenoids ([2]; clomazone, 24-h interval between 48- and 72-h time points): no significant increases
production of stilbenoids without elicitors ([2]; different concentrations of clomazone, no elicitors): none of these stilbenoids was detected

O=c1c(-c2ccc(O)cc2)coc2cc(O)cc(O)c12 [genistein]
prenylation as prenyl acceptor (AhR4DT-1): neither prenylated flavanone, prenylated flavone, nor prenylated isoflavone was detected
prenylation as prenyl acceptor (AhR3′DT-1): neither prenylated flavanone, prenylated flavone, nor prenylated isoflavone was detected

CC[C@H](C)C(=O)O[C@H]1CCC=C2C=C[C@H](C)[C@H](CC[C@@H]3C[C@@H](O)CC(=O)O3)[C@H]21 [mevastatin]
yields of resveratrol, piceatannol and prenylated stilbenoids ([2]; 10 μM mevastatin with elicitors): no significant effect
increase in yield of arachidin-1 [2, 4]: 41%
increase in yield of arachidin-5 [2, 4]: 27%
accumulation of arachidin-5, arachidin-1, arachidin-2 and arachidin-3 ([2]; 24-h interval between 48 and 72-h treatments): did not inhibit the accumulation
levels of prenylated stilbenoids ([2]; mevastatin at 1, 10, or 100 μM with 100 μM MeJA and 9 g/L CD, preliminary experiments): did not affect the levels of prenylated stilbenoids

O=C1C[C@@H](c2ccc(O)cc2)Oc2cc(O)cc(O)c21 [naringenin]
prenylation as prenyl acceptor (AhR4DT-1): neither prenylated flavanone, prenylated flavone, nor prenylated isoflavone was detected
prenylation as prenyl acceptor (AhR3′DT-1): neither prenylated flavanone, prenylated flavone, nor prenylated isoflavone was detected

Oc1cc(O)cc(/C=C/c2ccc(O)cc2O)c1 [oxyresveratrol]
prenylation as prenyl acceptor [1]: an isoprene unit was also transferred to oxyresveratrol
prenylation as prenyl acceptor (AhR4DT-1): can selectively catalyze
prenylation as prenyl acceptor (AhR3′DT-1): prenylated products of piceatannol and prenylated oxyresveratrol were identified

Oc1cc(O)cc(/C=C/c2ccc(O)c(O)c2)c1 [piceatannol, 3,5,3′,4′-tetrahydroxy-trans-stilbene]
prenylation as prenyl acceptor [1]: catalyzed the synthesis of arachidin-5 as the predominant prenylated product
Vmax for AhR4DT-1 relative to AhR3′DT-1 (AhR4DT-1): 6.9 fold
prenylation as prenyl acceptor (AhR4DT-1): can selectively catalyze
prenylation as prenyl acceptor (AhR3′DT-1): prenylated products of piceatannol and prenylated oxyresveratrol were identified

Oc1cc(O)cc(/C=C/c2ccccc2)c1 [pinosylvin]
prenylation as prenyl acceptor [1]: catalyzed pinosylvin into chiricanine A
prenylation as prenyl acceptor (AhR4DT-1): can selectively catalyze
prenylation as prenyl acceptor (AhR3′DT-1): no prenylated pinosylvin was produced

B1: AhR3′DT-4: stilbenoid prenyltransferase, GenBank KY565248 (protein, listed as Arachis hypogaea)
chain: MASTSRLLLHASLPPPTTSISKTNSGSHAVIRSIWHNNGKYPKEKTCIETPLLLQHNQKHHYTCDQIKRKHFVKATHAQSKNEPEPQADSAKPIWNSIKDVMHTIQKFSVFYALIGLLSGILSSSLLAVEKLSDLSPTFFISMLQFMAAYSSMQLYTTGVNQLADIEIDKINKPYRPLASSKISFGGGLAIVAASLFMSFGLALMIGSKPLLWGLILIFILMTAYSVNLPFLRWKKSTILTLLSGVPTILTAYNLAPYLHMKTFVLKKPFIFTRSLAFTTVVMTFFYVVISLFKDIPDIEGDKKEGLQTLSIRLGPKRVFWLCISLLEMTYGIAIIMGLTSPFLWSKIFTVMAHAINAWILWFRANSVDLKSKEDFQSFYMFIFKLLYLENVLVLFVR
activity level relative to AhR3′DT-1 (resveratrol prenylation): 5%

B2: AhR3′DT-2: stilbenoid prenyltransferase, GenBank KY565246 (protein, listed as Arachis hypogaea)
chain: MPFGLSASFLKSRSFHHHGTRRALWNNNGKLSKEYCIKMQHNYWKNHCTNLKGGSMMSDDKFEKKYLVNATSKNSHDEPKKSQPILEFIKDGMDTFRQFSRLYAFFSFISSGLSSSLLAVDNLSNISPKMFLIGFLQFLIPNCIMFQYIVGVNQLADIEIDKINKPYLPLASGKYSLRNAIIIVASSLLMGFGSAWVLGSRPMFWCLVISTMLMTAYSVNLPLLRWKRSTILATLSLASSMTIGQHIAPFLHMKTVLKKALNYPRSLVFTVVVVSLFYTVISLAKDIPDIEGDKAAGHKTLAIHLGPRRVFWFCISLLQMTYGIAIIMGALSPILWSKIFTVVTHFIMSIILWYRANSVDLSNNDSLQSFYMAIFVFLSVENFLVLFVR
activity level relative to AhR3′DT-1 (resveratrol prenylation): 18%

B3: AhR3′DT-3: stilbenoid prenyltransferase, GenBank KY565247 (protein, listed as Arachis hypogaea)
chain: MPFGLSASFLKSRSLHHHGWKFLKEREIHKQPLRNTRRALWNNNGKLSKEYCIKMQHNYWKNHCTNLKGGSMMSDDKFEKKYLVNATSKNSHDEPKKSQPILEFIKDGMDTFRQFSRLYAFFSFISSGLSSSLLAVDNLSNISPKMFLIGFLQFLIPNCIMFQYIVGVNQLADIEIDKINKPYLPLASGKYSLRNAIIIVASSLIMGFGSAWVLGSRPMFWCLVISTMLMTAYSVNLPLLRWKRSTILATLSLASSMTIGQHIAPFLHMKTVLKKALNYPRSLVFTVVVVSLFYTVISLAKDIPDIEGDKAAGHKTLAIHLGPRRVFWFCISLLQMTYGIAIIMGALSPILWSKIFTVVTHFIMSIILWYRANSVDLSNNDSLQSFYMAIFVFLSVENFLVLFVR
activity level relative to AhR3′DT-1 (resveratrol prenylation): 17%

Reference: patent publication US11535856B2, “Stilbenoid prenyltransferases from plants” (Arkansas State University—Jonesboro, priority 2016, dated 2022)
